Reference: paper PMC5441580, “GPR40 partial agonist MK-2305 lower fasting glucose in the Goto Kakizaki rat via suppression of endogenous glucose production” (PLoS ONE, 2017)
Several values for one entry are separate records, joined by “and”; a condition that tells them apart may be missing. Equal entries are not always repeated.

Experiments:
GK rats = experiment: endogenous glucose production in vivo, 2H/13C dual tracer, chronic treatment, GK rats; design: species or system rat; conditions: 10 mg/kg, individual animals
Procedure: To evaluate whether MK-2305 treatment produced an effect on EGP in vivo, a ^2H/^13C dual tracer approach was used to calculate EGP and its contributing sources. On the day of the study, GK rats were bled via tail snip, and blood glucose was measured via glucometer. Ambient glucose was measured at 8 A.M. and used to sort animals into treatment groups (n = 8 per group). 0.9% NaCl salinated D2O (Sigma-Aldrich, St. Louis, MO) was administered to all animals via IP injection at dose volume of 20 ml/kg. Animals were then placed in clean cages and food was removed. After a 5 hour fast, blood glucose was measured and animals were dosed PO with MK-2305 at 10 mg/kg (5 ml/kg) or vehicle (0.5% methylcellulose) immediately followed by 50 mg/kg [U-^13C] glucose (Sigma-Aldrich) IP at 5 ml/kg. Blood was collected via tail snip at time points from 60–150 min post treatment to measure blood glucose as well as endogenous (^12C-glucose) and exogenous (^13C-glucose) via GCMS. Following the last tail blood collection, rats were anesthetized with isoflurane and cardiac blood was collected into K2EDTA tubes (Becton, Dickinson and Co., Franklin Lakes, NJ).
The serially collected blood samples were analyzed for ^13C-glucose enrichment using GC-MS analysis. The % ^13C glucose enrichments were then combined with the total glucose readings to calculate the concentration of ^13C-glucose, and these values were modeled with a two-compartment model of whole body glucose metabolism to calculate the average EGP for the period from 0–150 minutes.
Terminal blood samples were analyzed for relative ^2H enrichment in plasma glucose using the monoacetone glucose method. Briefly, samples were extracted with 70% perchloric acid and centrifuged at 25,000 rcf for 10 min at 4°C. The supernatant was collected and the pH was adjusted to 6–8 using KOH. The samples were then lyophilized overnight. To convert plasma glucose to monoacetone glucose (MAG), acetone and concentrated sulfuric acid were added to the lyophilized samples and stirred for 4 hours at room temperature. Water was then added and the pH adjusted to 2.0 with 3M Na2CO3. Samples were stirred moderately for 18 hours at room temperature, the pH was adjusted to 7 with 3M Na2CO3, and the samples were completely dried by speed vacuum concentration. The resulting MAG samples were then extracted in hot ethyl acetate, dried overnight under a stream of N2 gas, purified using Discovery DSC-18 SPE columns (6 ml, 1 g bed weight), and freeze dried. […] The ^2H NMR spectra of the MAG samples were then analyzed using in–house developed Matlab (The Mathworks Inc, Natick, MA) to model the NMR peaks with a Lorentzian line shape, and the results were used to calculate integrals for each of the seven NMR resonances in the MAG spectrum. […]

Rat PPARα = target: T1, Rat PPARα (Rattus norvegicus, UniProt P37230); experiment: cell-based nuclear receptor profiling (Indigo Biosciences), PPARα
T1 sequence (P37230 1-468): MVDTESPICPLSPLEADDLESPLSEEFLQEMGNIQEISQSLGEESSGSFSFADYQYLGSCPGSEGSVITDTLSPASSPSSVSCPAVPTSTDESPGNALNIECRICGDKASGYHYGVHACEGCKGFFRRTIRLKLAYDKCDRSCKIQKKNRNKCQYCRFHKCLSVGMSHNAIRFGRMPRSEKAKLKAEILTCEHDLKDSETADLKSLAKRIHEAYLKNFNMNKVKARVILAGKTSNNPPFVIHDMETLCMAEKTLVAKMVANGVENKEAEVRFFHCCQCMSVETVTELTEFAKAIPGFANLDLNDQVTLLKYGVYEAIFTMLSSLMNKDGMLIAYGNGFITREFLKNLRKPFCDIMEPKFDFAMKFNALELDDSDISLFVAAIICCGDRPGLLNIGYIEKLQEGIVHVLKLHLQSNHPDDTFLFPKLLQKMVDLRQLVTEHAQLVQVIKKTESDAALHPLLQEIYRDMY
Procedure: (§1) Rat PPARα, PPARδ, and PPARγ activities were determined by Indigo Biosciences (State College, PA) cell-based nuclear receptor profiling service.

Rat PPARδ = target: T2, Rat PPARδ (Rattus norvegicus, UniProt Q62879); experiment: cell-based nuclear receptor profiling (Indigo Biosciences), PPARδ
T2 sequence (Q62879 1-440): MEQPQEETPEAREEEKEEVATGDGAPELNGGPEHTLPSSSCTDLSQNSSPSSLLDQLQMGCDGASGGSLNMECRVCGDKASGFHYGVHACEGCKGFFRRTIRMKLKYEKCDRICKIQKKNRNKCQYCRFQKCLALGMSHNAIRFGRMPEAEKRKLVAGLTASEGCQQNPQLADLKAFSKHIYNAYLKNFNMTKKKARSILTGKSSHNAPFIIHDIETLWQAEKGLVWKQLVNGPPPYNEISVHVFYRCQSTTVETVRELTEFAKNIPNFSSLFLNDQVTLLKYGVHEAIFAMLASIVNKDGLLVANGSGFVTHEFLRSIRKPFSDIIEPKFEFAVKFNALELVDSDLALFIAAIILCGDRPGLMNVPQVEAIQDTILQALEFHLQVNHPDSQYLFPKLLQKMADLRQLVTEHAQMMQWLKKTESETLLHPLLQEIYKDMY
Procedure: as §1

EC50 (Rat PPARα): > 10 µM
% Activation (Rat PPARα; @ 10 μM): -0.2 @ 10 μM % and -0.24%
% Effect (Rat PPARα; Dose 0.309 nM): -0.03%
% Effect (Rat PPARα; Dose 0.981 nM): -0.05%
% Effect (Rat PPARα; Dose 3.11 nM): -0.11%
% Effect (Rat PPARα; Dose 9.85 nM): -0.1%
% Effect (Rat PPARα; Dose 31.2 nM): -0.09%
% Effect (Rat PPARα; Dose 99 nM): -0.06%
% Effect (Rat PPARα; Dose 314 nM): -0.09%
% Effect (Rat PPARα; Dose 995 nM): -0.13%
% Effect (Rat PPARα; Dose 3155 nM): -0.18%
% Effect (Rat PPARα; Dose 10000 nM): -0.24%
EC50 (Rat PPARδ): > 10 µM
% Activation (Rat PPARδ; @ 10 μM): -0.1 @ 10 μM % and -0.08%
% Effect (Rat PPARδ; Dose 0.309 nM): -0.01%
% Effect (Rat PPARδ; Dose 0.981 nM): 0.01%
% Effect (Rat PPARδ; Dose 3.11 nM): -0.001%
% Effect (Rat PPARδ; Dose 9.85 nM): -0.01%
% Effect (Rat PPARδ; Dose 31.2 nM): -0.01%
% Effect (Rat PPARδ; Dose 99 nM): 0.01%
% Effect (Rat PPARδ; Dose 314 nM): 0.00%
% Effect (Rat PPARδ; Dose 995 nM): -0.02%
% Effect (Rat PPARδ; Dose 3155 nM): -0.04%
% Effect (Rat PPARδ; Dose 10000 nM): -0.08%
SMILES: O=C1NC(=O)C(C2CCOc3cc(Oc4ccc(C(F)(F)F)cc4Cl)ccc32)S1 (stereo not shown) [MK-2305]
Glucose Production, GNG Glycerol (GK rats): 9.192 µmol/kg/min and 6.083 µmol/kg/min and 7.998 µmol/kg/min and 7.217 µmol/kg/min and 7.842 µmol/kg/min and 8.659 µmol/kg/min and 3.467 µmol/kg/min and 8.678 µmol/kg/min
Glucose Production, GNG TCA (GK rats): 36.7882 µmol/kg/min and 38.5819 µmol/kg/min and 33.1225 µmol/kg/min and 31.7162 µmol/kg/min and 37.3311 µmol/kg/min and 31.203 µmol/kg/min and 37.9138 µmol/kg/min and 30.2175 µmol/kg/min
Glucose Production, GNG Total (GK rats): 45.9798 µmol/kg/min and 44.6651 µmol/kg/min and 41.1202 µmol/kg/min and 38.9333 µmol/kg/min and 45.1729 µmol/kg/min and 39.8625 µmol/kg/min and 41.3808 µmol/kg/min and 38.8959 µmol/kg/min
Glucose Production, Glycogenolysis (GK rats): 21.2266 µmol/kg/min and 17.3215 µmol/kg/min and 19.9927 µmol/kg/min and 20.4645 µmol/kg/min and 22.2628 µmol/kg/min and 19.9186 µmol/kg/min and 23.4568 µmol/kg/min and 19.0453 µmol/kg/min
